Test: xn = mol fraction of the nth substance listed
Conditions: 101 kPa, Liquid

CCCCC [pentane] + CCCCCC
Conditions	mass density [kg/m3]
273.15 K, x1 = 0.0999	674.29
273.15 K, x1 = 0.1996	671.84
273.15 K, x1 = 0.2998	668.66
273.15 K, x1 = 0.3884	666.23
273.15 K, x1 = 0.5	662.72
273.15 K, x1 = 0.6	659.97
273.15 K, x1 = 0.7001	657
273.15 K, x1 = 0.8995	650.09
273.16 K, x1 = 0.8011	653.2
278.15 K, x1 = 0.0999	669.9
278.15 K, x1 = 0.1996	667.39
278.15 K, x1 = 0.2998	664.21
278.15 K, x1 = 0.3884	661.71
278.15 K, x1 = 0.5	658.2
278.15 K, x1 = 0.6	655.38
278.15 K, x1 = 0.7001	652.36
278.15 K, x1 = 0.8011	648.53
278.15 K, x1 = 0.8995	645.39
283.14 K, x1 = 0.3884	657.16
283.14 K, x1 = 0.6	650.74
283.14 K, x1 = 0.7001	647.7
283.14 K, x1 = 0.8011	643.81
283.14 K, x1 = 0.8995	640.63
283.15 K, x1 = 0.0999	665.46
283.15 K, x1 = 0.1996	662.9
283.15 K, x1 = 0.2998	659.71
283.15 K, x1 = 0.5	653.63
288.14 K, x1 = 0.1996	658.38
288.14 K, x1 = 0.3884	652.56
288.14 K, x1 = 0.6	646.06
288.14 K, x1 = 0.7001	642.98
288.14 K, x1 = 0.8995	635.83
288.15 K, x1 = 0.0999	661
288.15 K, x1 = 0.2998	655.18
288.15 K, x1 = 0.5	649.01
288.15 K, x1 = 0.8011	639.05
293.14 K, x1 = 0.6	641.34
293.14 K, x1 = 0.7001	638.21
293.15 K, x1 = 0.0999	656.49
293.15 K, x1 = 0.1996	653.82
293.15 K, x1 = 0.2998	650.6
293.15 K, x1 = 0.3884	647.93
293.15 K, x1 = 0.5	644.36
293.15 K, x1 = 0.8011	634.24
293.15 K, x1 = 0.8995	630.97
298.14 K, x1 = 0.1996	649.22
298.14 K, x1 = 0.3884	643.25
298.14 K, x1 = 0.6	636.57
298.14 K, x1 = 0.7001	633.51
298.14 K, x1 = 0.8995	626.07
298.15 K, x1 = 0.0999	651.95
298.15 K, x1 = 0.2998	645.98
298.15 K, x1 = 0.5	639.66
298.15 K, x1 = 0.8011	629.38
303.14 K, x1 = 0.1996	644.58
303.14 K, x1 = 0.3884	638.53
303.14 K, x1 = 0.6	631.74
303.14 K, x1 = 0.7001	628.65
303.14 K, x1 = 0.8011	624.47
303.15 K, x1 = 0.0999	647.36
303.15 K, x1 = 0.2998	641.31
303.15 K, x1 = 0.5	634.91
303.15 K, x1 = 0.8995	621.11
308.14 K, x1 = 0.7001	623.75
308.15 K, x1 = 0.0999	642.74
308.15 K, x1 = 0.1996	639.9
308.15 K, x1 = 0.2998	636.59
308.15 K, x1 = 0.3884	633.76
308.15 K, x1 = 0.5	630.1
308.15 K, x1 = 0.6	626.86
308.15 K, x1 = 0.8011	619.5
308.15 K, x1 = 0.8995	616.08
313.14 K, x1 = 0.6	621.92
313.14 K, x1 = 0.8011	614.47
313.14 K, x1 = 0.8995	611
313.15 K, x1 = 0.0999	638.06
313.15 K, x1 = 0.1996	635.17
313.15 K, x1 = 0.2998	631.82
313.15 K, x1 = 0.3884	628.94
313.15 K, x1 = 0.5	625.24
313.15 K, x1 = 0.7001	618.75
318.14 K, x1 = 0.3884	624.06
318.14 K, x1 = 0.6	616.92
318.14 K, x1 = 0.7001	613.89
318.14 K, x1 = 0.8995	605.86
318.15 K, x1 = 0.0999	633.32
318.15 K, x1 = 0.1996	630.38
318.15 K, x1 = 0.5	620.41
318.15 K, x1 = 0.8011	609.38
323.14 K, x1 = 0.1996	625.55
323.14 K, x1 = 0.5	615.41
323.14 K, x1 = 0.8995	600.65
323.15 K, x1 = 0.0999	628.53
323.15 K, x1 = 0.6	611.84
328.14 K, x1 = 0.1996	620.65
328.15 K, x1 = 0.0999	623.68
328.15 K, x1 = 0.5	610.35
328.15 K, x1 = 0.6	606.69
333.15 K, x1 = 0.0999	618.77
333.15 K, x1 = 0.1996	615.6

CCCCC [pentane] + CCCCCCC
mass density [kg/m3]
Conditions	x1 = 0.1014	x1 = 0.2019	x1 = 0.3011	x1 = 0.4001	x1 = 0.4997	x1 = 0.5999	x1 = 0.698	x1 = 0.7991	x1 = 0.8992
273.14 K	–	691.57	–	–	–	–	–	–	–
273.15 K	696.24	–	686.91	682.43	677.18	671.16	665.42	659.05	652.37
278.15 K	692.07	687.35	682.65	678.13	672.82	666.73	660.92	654.47	647.72
283.15 K	687.87	683.1	678.35	673.78	668.42	662.25	656.37	649.85	643.01
288.15 K	683.65	678.83	674.03	669.41	663.99	657.74	651.79	645.18	638.26
293.15 K	679.4	674.53	669.67	665.01	659.51	653.19	647.17	640.48	633.46
298.15 K	675.12	670.21	665.29	660.56	655.01	648.6	642.5	635.73	628.61
303.15 K	670.82	665.85	660.88	656.08	650.46	643.97	637.79	630.93	623.7
308.15 K	666.49	661.46	656.43	651.57	645.86	639.3	633.03	626.07	–
313.15 K	662.08	657.04	651.94	647	641.22	634.58	628.22	621.16	–
318.15 K	657.69	652.58	647.42	642.39	636.53	–	623.36	616.18	–
323.15 K	653.26	648.09	642.84	637.74	631.79	–	618.43	611.14	–
328.15 K	648.78	643.55	638.23	633.03	626.99	–	–	–	–
333.15 K	644.24	–	633.57	628.26	622.13	–	–	–	–
338.15 K	639.67	–	–	623.48	617.2	–	–	–	–
343.15 K	635.01	–	–	618.87	–	–	–	–	–

— the NIST ThermoML archive (doi:10.1016/j.jct.2005.05.020)
